# Experimental data published in patent publication US9302999B2, “Substituted triazoles as herbicides” (E. I. DU PONT DE NEMOURS AND COMPANY, priority 2012, dated 2016).
# Legend:
# Assay type in all cases: in vivo
# [1] = system: barnyardgrass (Echinochloa crus-galli); experiment: Test A pre-/postemergence: barnyardgrass; settings: for Barnyardgrass plant response rating: Postemergence; for Plant response rating, Barnyardgrass: Preemergence
# Summary of the method: (§1)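 Plants in loam–sand blend were treated with test chemicals in non-phytotoxic solvent with surfactant, either as preemergence directed soil spray or postemergence at 2–10 cm, one- to two-leaf stage. After about ten days in greenhouse, injury was rated visually against untreated controls on a 0–100 scale (100 = complete control).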
# [2] = system: morningglory (Ipomoea spp.); experiment: Test A pre-/postemergence: morningglory; settings: for Morningglory plant response rating: Postemergence; for Plant response rating, Morningglory: Preemergence
# Summary of the method: as §1
# [3] = system: wheat (Triticum aestivum); experiment: Test A pre-/postemergence: wheat; settings: for Wheat plant response rating: Postemergence; for Plant response rating, Wheat: Preemergence
# Summary of the method: as §1
# corn (Zea mays) = experiment: Test A pre-/postemergence: corn; settings: for Corn plant response rating: Postemergence; for Plant response rating, Corn: Preemergence
# Summary of the method: as §1
# [4] = system: blackgrass (Alopecurus myosuroides); experiment: Test C pre-/postemergence: blackgrass
# Summary of the method: (§2)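 Preemergence on seeds in loam/sand, postemergence on 2–18 cm (1–4-leaf) plants in peat-based medium; compounds in non-phytotoxic solvent with surfactant. After 13–15 days in greenhouse, visual rating versus controls, 0 (no effect) to 100 (complete control).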
# [5] = system: ryegrass, Italian (Italian ryegrass, Lolium multiflorum); experiment: Test C pre-/postemergence: ryegrass, Italian
# Summary of the method: as §2
# [6] = system: large crabgrass (Digitaria sanguinalis); experiment: Test C pre-/postemergence: large crabgrass
# Summary of the method: as §2
# [7] = system: johnsongrass (Sorghum halepense); experiment: Test C pre-/postemergence: johnsongrass
# Summary of the method: as §2
# [8] = system: nutsedge, yellow (yellow nutsedge, Cyperus esculentus); experiment: Test C pre-/postemergence: nutsedge, yellow
# Summary of the method: as §2
# [9] = system: pigweed (Amaranthus retroflexus); experiment: Test C pre-/postemergence: pigweed
# Summary of the method: as §2
# soybean (Glycine max) = experiment: Test C pre-/postemergence: soybean
# Summary of the method: as §2
# [10] = 125 g ai/ha, 0 to 100 scale, 0 is no effect, 100 is complete control
# [11] = 500 g ai/ha, visual rating on 0 to 100 scale (0 no effect, 100 complete control), approximately ten days
# [12] = 125 g ai/ha, 0 to 100 scale (0 no effect, 100 complete control)
# [13] = 500 g ai/ha, 0 to 100 scale, 0 is no effect, 100 is complete control
# [14] = Postemergence, 31 g ai/ha, scale 0 to 100 (0 no effect, 100 complete control)
# [15] = Postemergence, 62 g ai/ha, scale 0 to 100 (0 no effect, 100 complete control)
# [16] = Postemergence, 125 g ai/ha, scale 0 to 100, 0 no effect, 100 complete control
# [17] = Postemergence, 250 g ai/ha, scale 0 to 100
# [18] = Preemergence, 31 g ai/ha, scale of 0 to 100, 0 is no effect, 100 is complete control
# [19] = Preemergence, 62 g ai/ha, scale 0 to 100, 0 no effect, 100 complete control
# [20] = Preemergence, 125 g ai/ha, scale 0 to 100, 0 no effect, 100 complete control
# [21] = Preemergence, 250 g ai/ha, scale 0 to 100, 0 no effect, 100 complete control
# [22] = Preemergence, 62 g ai/ha, scale of 0 to 100, 0 is no effect, 100 is complete control
compound,measurement,setting,value
Cc1nn(-c2ccc(C(F)(F)F)cn2)nc1Oc1ccnc(C(F)(F)F)c1 [Compound 23],Barnyardgrass plant response rating,[1]; [10],70
same,Barnyardgrass plant response rating,[1]; [11],90
same,"Plant response rating, Barnyardgrass",[1]; [12],70
same,"Plant response rating, Barnyardgrass",[1]; [13],100
same,Morningglory plant response rating,[2]; [10],90
same,Morningglory plant response rating,[2]; [11],100
same,"Plant response rating, Morningglory",[2]; [12],80
same,"Plant response rating, Morningglory",[2]; [13],80
same,Wheat plant response rating,[3]; [10],20
same,Wheat plant response rating,[3]; [11],50
same,"Plant response rating, Wheat",[3]; [12],0
same,"Plant response rating, Wheat",[3]; [13],70
same,Corn plant response rating,corn (Zea mays); [10],30
same,Corn plant response rating,corn (Zea mays); [11],50
same,"Plant response rating, Corn",corn (Zea mays); [12],10
same,"Plant response rating, Corn",corn (Zea mays); [13],40
same,"Plant response rating, Blackgrass",[4]; [14],15
same,"Plant response rating, Blackgrass",[4]; [15],20
same,"Plant response rating, Blackgrass",[4]; [16],20
same,"Plant response rating, Blackgrass",[4]; [17],25
same,"Plant response rating, Blackgrass",[4]; [18],5
same,"Plant response rating, Blackgrass",[4]; [19],85
same,"Plant response rating, Blackgrass",[4]; [20],100
same,"Plant response rating, Blackgrass",[4]; [21],100
same,"Plant response rating, Ryegrass, Italian",[5]; [14],5
same,"Plant response rating, Ryegrass, Italian",[5]; [15],10
same,"Plant response rating, Ryegrass, Italian",[5]; [16],10
same,"Plant response rating, Ryegrass, Italian",[5]; [17],15
same,"Plant response rating, Ryegrass, Italian",[5]; [18],0
same,"Plant response rating, Ryegrass, Italian",[5]; [22],5
same,"Plant response rating, Ryegrass, Italian",[5]; [20],25
same,"Plant response rating, Ryegrass, Italian",[5]; [21],70
same,"Plant response rating, Crabgrass, Large",[6]; [14],10
same,"Plant response rating, Crabgrass, Large",[6]; [15],15
same,"Plant response rating, Crabgrass, Large",[6]; [16],25
same,"Plant response rating, Crabgrass, Large",[6]; [17],35
same,"Plant response rating, Crabgrass, Large",[6]; [18],100
same,"Plant response rating, Crabgrass, Large",[6]; [22],100
same,"Plant response rating, Crabgrass, Large",[6]; [20],100
same,"Plant response rating, Crabgrass, Large",[6]; [21],100
same,"Plant response rating, Johnsongrass",[7]; [14],5
same,"Plant response rating, Johnsongrass",[7]; [15],10
same,"Plant response rating, Johnsongrass",[7]; [16],10
same,"Plant response rating, Johnsongrass",[7]; [17],20
same,"Plant response rating, Johnsongrass",[7]; [18],55
same,"Plant response rating, Johnsongrass",[7]; [22],75
same,"Plant response rating, Johnsongrass",[7]; [20],95
same,"Plant response rating, Johnsongrass",[7]; [21],98
same,"Plant response rating, Nutsedge, Yellow",[8]; [14],10
same,"Plant response rating, Nutsedge, Yellow",[8]; [15],10
same,"Plant response rating, Nutsedge, Yellow",[8]; [16],10
same,"Plant response rating, Nutsedge, Yellow",[8]; [17],10
same,"Plant response rating, Nutsedge, Yellow",[8]; [18],5
same,"Plant response rating, Nutsedge, Yellow",[8]; [22],10
same,"Plant response rating, Nutsedge, Yellow",[8]; [20],35
same,"Plant response rating, Nutsedge, Yellow",[8]; [21],55
same,"Plant response rating, Pigweed",[9]; [14],70
same,"Plant response rating, Pigweed",[9]; [16],80
same,"Plant response rating, Pigweed",[9]; [17],95
same,"Plant response rating, Pigweed",[9]; [18],100
same,"Plant response rating, Pigweed",[9]; [22],100
same,"Plant response rating, Pigweed",[9]; [20],100
same,"Plant response rating, Pigweed",[9]; [21],100
same,"Plant response rating, Soybean",soybean (Glycine max); [14],30
same,"Plant response rating, Soybean",soybean (Glycine max); [15],55
same,"Plant response rating, Soybean",soybean (Glycine max); [16],55
same,"Plant response rating, Soybean",soybean (Glycine max); [17],65
same,"Plant response rating, Soybean",soybean (Glycine max); [18],0
same,"Plant response rating, Soybean",soybean (Glycine max); [22],5
same,"Plant response rating, Soybean",soybean (Glycine max); [20],10
same,"Plant response rating, Soybean",soybean (Glycine max); [21],50
Fc1ccc(-n2nc(Cc3ccnc(C(F)(F)F)c3)c(OC(F)F)n2)cc1 [Compound 25],Barnyardgrass plant response rating,[1]; [10],50
same,Barnyardgrass plant response rating,[1]; [11],90
same,"Plant response rating, Barnyardgrass",[1]; [12],80
same,"Plant response rating, Barnyardgrass",[1]; [13],90
same,Morningglory plant response rating,[2]; [10],100
same,Morningglory plant response rating,[2]; [11],100
same,"Plant response rating, Morningglory",[2]; [12],30
same,"Plant response rating, Morningglory",[2]; [13],80
same,Wheat plant response rating,[3]; [10],40
same,Wheat plant response rating,[3]; [11],60
same,"Plant response rating, Wheat",[3]; [12],20
same,"Plant response rating, Wheat",[3]; [13],80
same,Corn plant response rating,corn (Zea mays); [10],30
same,Corn plant response rating,corn (Zea mays); [11],30
same,"Plant response rating, Corn",corn (Zea mays); [12],10
same,"Plant response rating, Corn",corn (Zea mays); [13],30
same,"Plant response rating, Blackgrass",[4]; [14],10
same,"Plant response rating, Blackgrass",[4]; [15],35
same,"Plant response rating, Blackgrass",[4]; [16],40
same,"Plant response rating, Blackgrass",[4]; [17],60
same,"Plant response rating, Blackgrass",[4]; [18],60
same,"Plant response rating, Blackgrass",[4]; [19],85
same,"Plant response rating, Blackgrass",[4]; [20],95
same,"Plant response rating, Blackgrass",[4]; [21],100
same,"Plant response rating, Ryegrass, Italian",[5]; [14],5
same,"Plant response rating, Ryegrass, Italian",[5]; [15],5
same,"Plant response rating, Ryegrass, Italian",[5]; [16],5
same,"Plant response rating, Ryegrass, Italian",[5]; [17],5
same,"Plant response rating, Ryegrass, Italian",[5]; [18],5
same,"Plant response rating, Ryegrass, Italian",[5]; [22],35
same,"Plant response rating, Ryegrass, Italian",[5]; [20],45
same,"Plant response rating, Ryegrass, Italian",[5]; [21],90
same,"Plant response rating, Crabgrass, Large",[6]; [14],15
same,"Plant response rating, Crabgrass, Large",[6]; [15],20
same,"Plant response rating, Crabgrass, Large",[6]; [16],40
same,"Plant response rating, Crabgrass, Large",[6]; [17],65
same,"Plant response rating, Crabgrass, Large",[6]; [18],98
same,"Plant response rating, Crabgrass, Large",[6]; [22],100
same,"Plant response rating, Crabgrass, Large",[6]; [20],100
same,"Plant response rating, Crabgrass, Large",[6]; [21],100
same,"Plant response rating, Johnsongrass",[7]; [14],5
same,"Plant response rating, Johnsongrass",[7]; [15],5
same,"Plant response rating, Johnsongrass",[7]; [16],10
same,"Plant response rating, Johnsongrass",[7]; [17],15
same,"Plant response rating, Johnsongrass",[7]; [18],5
same,"Plant response rating, Johnsongrass",[7]; [22],30
same,"Plant response rating, Johnsongrass",[7]; [20],65
same,"Plant response rating, Johnsongrass",[7]; [21],98
same,"Plant response rating, Nutsedge, Yellow",[8]; [14],5
same,"Plant response rating, Nutsedge, Yellow",[8]; [15],5
same,"Plant response rating, Nutsedge, Yellow",[8]; [16],10
same,"Plant response rating, Nutsedge, Yellow",[8]; [17],10
same,"Plant response rating, Nutsedge, Yellow",[8]; [18],0
same,"Plant response rating, Nutsedge, Yellow",[8]; [22],0
same,"Plant response rating, Nutsedge, Yellow",[8]; [20],0
same,"Plant response rating, Nutsedge, Yellow",[8]; [21],0
same,"Plant response rating, Pigweed",[9]; [14],85
same,"Plant response rating, Pigweed",[9]; [15],95
same,"Plant response rating, Pigweed",[9]; [16],95
same,"Plant response rating, Pigweed",[9]; [17],98
same,"Plant response rating, Pigweed",[9]; [18],100
same,"Plant response rating, Pigweed",[9]; [22],100
same,"Plant response rating, Pigweed",[9]; [20],100
same,"Plant response rating, Pigweed",[9]; [21],100
same,"Plant response rating, Soybean",soybean (Glycine max); [14],25
same,"Plant response rating, Soybean",soybean (Glycine max); [15],30
same,"Plant response rating, Soybean",soybean (Glycine max); [16],30
same,"Plant response rating, Soybean",soybean (Glycine max); [17],30
same,"Plant response rating, Soybean",soybean (Glycine max); [18],0
same,"Plant response rating, Soybean",soybean (Glycine max); [22],0
same,"Plant response rating, Soybean",soybean (Glycine max); [20],0
same,"Plant response rating, Soybean",soybean (Glycine max); [21],10
